Results as given in patent publication US10294202B2, “Pyrrolidinones as herbicides” (FMC Corporation, priority 2013, dated 2019).

How the values were obtained:
barnyardgrass [1] = experiment: Test A pre-/postemergence herbicide test; format: in vivo, Echinochloa crus-galli
Procedure, shortened: (§1)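 Visual 0–100 ratings (100 = complete control) made about 10 days after treatment, greenhouse-held plants compared with untreated controls. Treatments: postemergence sprays on one- to two-leaf plants (2–10 cm tall) and preemergence directed soil sprays after planting in loam–sand, chemicals formulated in non-phytotoxic solvent containing surfactant.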

kochia = experiment: Test A pre-/postemergence herbicide test; format: in vivo, Kochia scoparia
Procedure, shortened: as §1

ragweed = experiment: Test A pre-/postemergence herbicide test; format: in vivo, Ambrosia elatior
Procedure, shortened: as §1

ryegrass, Italian = experiment: Test A pre-/postemergence herbicide test; format: in vivo, Lolium multiflorum
Procedure, shortened: as §1

giant foxtail = experiment: Test A pre-/postemergence herbicide test; format: in vivo, Setaria faberii
Procedure, shortened: as §1

pigweed = experiment: Test A pre-/postemergence herbicide test; format: in vivo, Amaranthus retroflexus
Procedure, shortened: as §1

wheat = experiment: Test A pre-/postemergence herbicide test; format: in vivo, Triticum aestivum; settings: Postemergence; for Plant response rating, Wheat: 125 g ai/ha
Procedure, shortened: as §1

corn = experiment: Test A pre-/postemergence herbicide test; format: in vivo, Zea mays; settings: Postemergence
Procedure, shortened: as §1

blackgrass = experiment: Test A postemergence herbicide test; format: in vivo, Alopecurus myosuroides
Procedure, shortened: (§2)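 Plants at the one- to two-leaf stage, 2–10 cm tall, grown in loam/sand pots, received postemergence sprays of the test chemicals. After about 10 days in the greenhouse, injury was scored visually against untreated controls on a 0–100 scale (0 none, 100 complete control).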

galium = experiment: Test A postemergence herbicide test; format: in vivo, Galium aparine; settings: for Plant response rating, Galium: 125 g ai/ha
Procedure, shortened: as §2

rice [2] = experiment: Test B flooded paddy test; format: in vivo, Oryza sativa; settings: Flood, scale of 0 to 100 where 0 is no effect and 100 is complete control
Procedure, shortened: (§3)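 Plants were grown to the 2-leaf stage, then pots were flooded to 3 cm above the soil and compound was applied directly into the paddy water, with that depth held throughout. After 13 to 15 days in a greenhouse, injury was rated visually against untreated controls on a 0 to 100 scale (100 = complete control).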

sedge, umbrella [3] = experiment: Test B flooded paddy test; format: in vivo, Cyperus difformis; settings: Flood, scale of 0 to 100 where 0 is no effect and 100 is complete control
Procedure, shortened: as §3

ducksalad [4] = experiment: Test B flooded paddy test; format: in vivo, Heteranthera limosa; settings: Flood, scale of 0 to 100 where 0 is no effect and 100 is complete control
Procedure, shortened: as §3

barnyardgrass [5] = experiment: Test B flooded paddy test; format: in vivo, Echinochloa crus-galli; settings: Flood, scale of 0 to 100 where 0 is no effect and 100 is complete control
Procedure, shortened: as §3

rice [6] = experiment: Test C flooded paddy test; format: in vivo, Oryza sativa; settings: Flood
Procedure, shortened: (§4)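 Plants grown to the 2-leaf stage; pots flooded to 3 cm above soil and compound applied directly into the paddy water, depth kept throughout. Greenhouse 13 to 15 days, then visual rating vs untreated controls on 0–100 scale (0 no effect, 100 complete control); dash means no result.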

sedge, umbrella [7] = experiment: Test C flooded paddy test; format: in vivo, Cyperus difformis; settings: Flood
Procedure, shortened: as §4

ducksalad [8] = experiment: Test C flooded paddy test; format: in vivo, Heteranthera limosa; settings: Flood
Procedure, shortened: as §4

barnyardgrass [9] = experiment: Test C flooded paddy test; format: in vivo, Echinochloa crus-galli; settings: Flood
Procedure, shortened: as §4

[10] = 125 g ai/ha, visual rating, 0 to 100 scale, 0 no effect, 100 complete control, approximately 10 days, preemergence
[11] = Postemergence, 125 g ai/ha, 0 to 100 scale, 0 is no effect, 100 is complete control
[12] = preemergence, 500 g ai/ha, 0 to 100 scale, 0 is no effect and 100 is complete control
[13] = 0 to 100 scale, 0 is no effect, 100 is complete control
[14] = 125 g ai/ha, 0 to 100 scale, 0 is no effect, 100 is complete control
[15] = 125 g ai/ha, scale of 0 to 100 where 0 is no effect and 100 is complete control, 13 to 15 days
[16] = 250 g ai/ha, scale of 0 to 100 where 0 is no effect and 100 is complete control, 13 to 15 days
[17] = Postemergence, 125 g ai/ha, visual rating on 0 to 100 scale (0 no effect, 100 complete control), approx. 10 days
[18] = Postemergence, 500 g ai/ha, 0 to 100 scale (0 no effect, 100 complete control)
[19] = Preemergence, 125 g ai/ha, 0 to 100 scale where 0 is no effect and 100 is complete control
[20] = Preemergence, 500 g ai/ha, visual rating on 0 to 100 scale (0 no effect, 100 complete control)
[21] = visual rating on 0 to 100 scale (0 no effect, 100 complete control), approx. 10 days
[22] = 125 g ai/ha, visual rating on 0 to 100 scale (0 no effect, 100 complete control), approx. 10 days
[23] = 500 g ai/ha, 0 to 100 scale (0 no effect, 100 complete control)

## CC(C)(C)c1cccc(C2CNC(=O)C2C(=O)Nc2cccc(F)c2F)c1 (racemic) [Compound 200]
Barnyardgrass [1]; [10]
  Plant response rating, Barnyardgrass: 60
Barnyardgrass [1]; [11]
  Plant response rating, Barnyardgrass: 70
Barnyardgrass [1]; Postemergence, 500 g ai/ha
  Barnyardgrass plant response rating (0 to 100 scale, 0 is no effect, 100 is complete control): 90
Barnyardgrass [1]; [12]
  Plant response rating, Barnyardgrass: 90
kochia; [10]
  Plant response rating, Kochia: 0
kochia; [11]
  Plant response rating, Kochia: 0
kochia; Postemergence, 500 g ai/ha
  Kochia plant response rating (0 to 100 scale, 0 is no effect, 100 is complete control): 0
kochia; [12]
  Plant response rating, Kochia: 0
ragweed; [10]
  Plant response rating, Ragweed: 0
ragweed; [11]
  Plant response rating, Ragweed: 0
ragweed; Postemergence, 500 g ai/ha
  Ragweed plant response rating (0 to 100 scale, 0 is no effect, 100 is complete control): 0
ragweed; [12]
  Plant response rating, Ragweed: 0
ryegrass, Italian; [10]
  Plant response rating, Ryegrass, Italian: 0
ryegrass, Italian; [11]
  Plant response rating, Ryegrass, Italian: 0
ryegrass, Italian; Postemergence, 500 g ai/ha
  Ryegrass, Italian plant response rating (0 to 100 scale, 0 is no effect, 100 is complete control): 0
ryegrass, Italian; [12]
  Plant response rating, Ryegrass, Italian: 0
Giant foxtail; [10]
  Plant response rating, Foxtail, Giant: 30
Giant foxtail; [11]
  Plant response rating, Foxtail, Giant: 20
Giant foxtail; Postemergence, 500 g ai/ha
  Foxtail, Giant plant response rating (0 to 100 scale, 0 is no effect, 100 is complete control): 40
Giant foxtail; [12]
  Plant response rating, Foxtail, Giant: 80
pigweed; [10]
  Plant response rating, Pigweed: 0
pigweed; [11]
  Plant response rating, Pigweed: 0
pigweed; Postemergence, 500 g ai/ha
  Pigweed plant response rating (0 to 100 scale, 0 is no effect, 100 is complete control): 0
pigweed; [12]
  Plant response rating, Pigweed: 0
wheat; [13]
  Plant response rating, Wheat: 0
wheat; 500 g ai/ha
  Wheat plant response rating (0 to 100 scale, 0 is no effect, 100 is complete control): 20
corn; [14]
  Plant response rating, Corn: 0
corn; 500 g ai/ha
  Corn plant response rating (0 to 100 scale, 0 is no effect, 100 is complete control): 20
blackgrass; [14]
  Plant response rating, Blackgrass: 0
blackgrass; 500 g ai/ha
  Blackgrass plant response rating (0 to 100 scale, 0 is no effect, 100 is complete control): 0
galium; [13]
  Plant response rating, Galium: 0
galium; 500 g ai/ha
  Galium plant response rating (0 to 100 scale, 0 is no effect, 100 is complete control): 0
Rice [2]; 1000 g ai/ha
  Plant response rating, Rice: 15
sedge, umbrella [3]; 1000 g ai/ha
  Plant response rating, Sedge, Umbrella: 0
Ducksalad [4]; 1000 g ai/ha
  Plant response rating, Ducksalad: 95
Barnyardgrass [5]; 1000 g ai/ha
  Plant response rating, Barnyardgrass: 85
Rice [6]; [15]
  Plant response rating, Rice: 0
Rice [6]; [16]
  Plant response rating, Rice: 0
Rice [6]; 500 g ai/ha, scale 0 to 100
  Plant response rating, Rice: 0
Rice [6]; 1000 g ai/ha, scale 0 to 100
  Plant response rating, Rice: 0
sedge, umbrella [7]; [15]
  Plant response rating, Sedge, Umbrella: 0
sedge, umbrella [7]; [16]
  Plant response rating, Sedge, Umbrella: 0
sedge, umbrella [7]; 500 g ai/ha, scale 0 to 100
  Plant response rating, Sedge, Umbrella: 0
sedge, umbrella [7]; 1000 g ai/ha, scale 0 to 100
  Plant response rating, Sedge, Umbrella: 0
Ducksalad [8]; [15]
  Plant response rating, Ducksalad: 70
Ducksalad [8]; [16]
  Plant response rating, Ducksalad: 70
Ducksalad [8]; 500 g ai/ha, scale 0 to 100
  Plant response rating, Ducksalad: 100
Ducksalad [8]; 1000 g ai/ha, scale 0 to 100
  Plant response rating, Ducksalad: 100
Barnyardgrass [9]; [15]
  Plant response rating, Barnyardgrass: 15
Barnyardgrass [9]; [16]
  Plant response rating, Barnyardgrass: 25
Barnyardgrass [9]; 500 g ai/ha, scale 0 to 100
  Plant response rating, Barnyardgrass: 40
Barnyardgrass [9]; 1000 g ai/ha, scale 0 to 100
  Plant response rating, Barnyardgrass: 55

## O=C1NCC(c2ccc(OC(F)F)cc2)C1C(=O)Nc1ccccc1F (stereo not shown) [Compound 349]
Barnyardgrass [1]; [17]
  Plant response rating, Barnyardgrass: 80
Barnyardgrass [1]; [18]
  Plant response rating, Barnyardgrass: 90
Barnyardgrass [1]; [19]
  Plant response rating, Barnyardgrass: 70
Barnyardgrass [1]; [20]
  Barnyardgrass plant response rating: 90
kochia; [17]
  Plant response rating, Kochia: 40
kochia; [19]
  Plant response rating, Kochia: 50
kochia; [20]
  Kochia plant response rating: 80
ragweed; [17]
  Plant response rating, Ragweed: 0
ragweed; [19]
  Plant response rating, Ragweed: 0
ragweed; [20]
  Ragweed plant response rating: 40
ryegrass, Italian; [17]
  Plant response rating, Ryegrass, Italian: 0
ryegrass, Italian; [19]
  Plant response rating, Ryegrass, Italian: 0
ryegrass, Italian; [20]
  Ryegrass, Italian plant response rating: 0
Giant foxtail; [17]
  Plant response rating, Foxtail, Giant: 60
Giant foxtail; [18]
  Plant response rating, Foxtail, Giant: 90
Giant foxtail; [19]
  Plant response rating, Foxtail, Giant: 80
Giant foxtail; [20]
  Foxtail, Giant plant response rating: 90
pigweed; [17]
  Plant response rating, Pigweed: 0
pigweed; [19]
  Plant response rating, Pigweed: 0
pigweed; [20]
  Pigweed plant response rating: 40
wheat; [21]
  Plant response rating, Wheat: 0
corn; [22]
  Plant response rating, Corn: 0
corn; [23]
  Plant response rating, Corn: 20
blackgrass; [22]
  Plant response rating, Blackgrass: 20
blackgrass; [23]
  Plant response rating, Blackgrass: 40
galium; [21]
  Plant response rating, Galium: 20
Rice [2]; 500 g ai/ha
  Plant response rating, Rice: 0
sedge, umbrella [3]; 500 g ai/ha
  Plant response rating, Sedge, Umbrella: 0
Ducksalad [4]; 500 g ai/ha
  Plant response rating, Ducksalad: 90
Barnyardgrass [5]; 500 g ai/ha
  Plant response rating, Barnyardgrass: 40
